In US20180333382A1, “PHARMACEUTICAL COMPOSITIONS COMPRISING DGLA AND USE OF SAME” (DS Biopharma Limited, priority 2017, published 2018):
“And” between values parts separate entries of the source, which are not always exact repeats. Equal values may be shown once. Marks after values point to notes of the source that are not given here.

Columns and labels:
[1] = in vivo
Description: In Part one of the study, plasma PK analysis of Dihomo-Gamma-Linolenic Acid (DGLA) and 15-Hydroxyeicosatrienoic acid (15-HETrE), in fasted subjects alone, was performed for Cohorts one to four up to 312 hours post dose on study Days 1 to 5, 8, 14, and the follow-up visit.
Analysis of plasma concentrations of DGLA (free and total) and free 15-HETrE were performed in blood samples obtained from the subjects.
Analysis of all plasma and skin blister fluid samples was performed using validated methods. Concentrations of free and total DGLA were measured in plasma and skin blister fluid by liquid chromatography with tandem mass spectrometry (LC/MS/MS); the quantitation range was 100 to 10,000 ng/mL for free DGLA and 5000 to 500,000 ng/mL for total DGLA. Plasma concentrations of free 15-HETrE were measured by LC/MS/MS with a quantitation range of 100 to 10,000 ng/mL.

[2] = system: spontaneous hypertensive rats; test: Arterial pressure and phenylephrine-induced hypertensive response after seven days of gavage (DGLA, aspirin, DGLA + aspirin); type: in vivo, rat
Description: An in vivo investigation of anti-hypertension efficacy following co-administration of DGLA and aspirin in spontaneous hypertensive rats was conducted. This experiment investigated the efficacy of DGLA when co-administered chronically with aspirin to reduce the hypertensive response induced acutely by phenylephrine in spontaneous hypertensive rats. Spontaneously hypertensive adult male rats (250-300 g), bred by Charles River Laboratories, were used for this assay. The animals were identified upon arrival as per CCPA guidelines. The animals were pair-housed by group (low dose+aspirin, high dose+aspirin or aspirin alone) for the duration of the oral gavage prior to surgery. All animal care and vivarium maintenance was recorded, with documents kept at the test facility.
The concentrations of DGLA to be tested (50 and 500 mg/kg) as well as the concentration of aspirin (10 mg/kg) were selected by the Sponsor based on information available at the time of design of this study. They were selected to cover a range of concentrations useful for the identification of the mechanism of action of the test article.
All solution preparations were documented on a Solution Contents Form, defining labelling information and all relevant information on reagents: batch number, storage conditions, contents, and preparation/expiry dates.
The test article was formulated using olive oil as the vehicle. This stock solution was then administered by oral gavage once per day for seven consecutive days. A low and a high dose (50 mg/kg and 500 mg/kg) were tested.
A 5 mg/ml stock solution of aspirin was prepared by dissolving the appropriate amount of aspirin in 100% DMSO which was then diluted in water. The concentration of DMSO was less than 1%. The appropriate volume was administered by oral gavage to each animal once per day for seven consecutive days. The stock solution was stored at room temperature and was considered stable for the duration of the gavage.
The appropriate volume was administered to each animal by an intravenous injection at the end of the experiment on the surgery day. The stock solution was stored at 4° C. and was considered stable for the duration of the experiment.
A stock solution of phenylephrine of 1 mg/ml were prepared in PBS (pH=7.4±0.05). The stock solution was stored at 4° C. The expiration date was set at 14 days after preparation.
Male spontaneous hypertensive rats weighing approximately 300 g arrived at the facility at least two days before beginning the oral gavage. Animals were assigned to one of three groups (low dose+aspirin, high dose+aspirin, and aspirin), and were pair-housed during the acclimation period. Each group (n=4) received the appropriate compound by oral gavage using a 16 G feeding needle. The stock solution was administered once per day for seven consecutive days. On the seventh day of administration, the animals underwent surgery and hypertensive monitoring.
Rats were anesthetized with a 2.5-3.0% isoflurane-O2 mixture in an induction box. When the animals were removed from the induction box, they were connected onto a nose cone to maintain anesthesia during the tracheotomy. The animals were tracheotomised with an endotracheal tube (7 cm length from connector to the tip made with a PE205 tube from BD and a 16 G needle) to facilitate spontaneous breathing, stabilize hemodynamics, and to keep the rat under anesthesia with an isoflurane-O2 mixture. Two catheters were inserted: one in the right femoral artery for systemic arterial pressure (SAP) measurement, and one in the right femoral vein for delivery of the hypertensor and positive control. ECG signals were acquired with ECG contacts placed in a Lead-1 configuration on the anaesthetized animal, and a pulse oxymeter was attached to the animal's hind paw to enable continuous monitoring of the general condition of the rat during the surgical procedure.

[3] = Aspirin 10 mg/kg, seven days of gavage, before phenylephrine
[4] = aspirin only (10 mg/kg), seven consecutive days of gavage
[5] = aspirin only (10 mg/kg), seven consecutive days of gavage, Rat #1-#5

CCCCC[C@H](O)/C=C/C=C\C/C=C\CCCCCCC(=O)O [15-HETrE, 15-Hydroxyeicosatrienoic acid]
plasma free 15-HETrE concentrations after DS107G [1]: < 100 ng/mL

CC(=O)Oc1ccccc1C(=O)O [Aspirin, aspirin]
Arterial pressure, Diastol [2, 3]: 100 mmHg
Arterial pressure, Systol [2, 3]: 190 mmHg
Mean systemic arterial pressure [2, 3]: 130 mmHg
Mean arterial pressure at baseline, Average SAP [2, 4]: 136.8 mm of Hg
Mean arterial pressure with an intravenous dose of Phenylephrine 20 μg/kg, Average SAP [2, 4]: 174.3 mm of Hg
Mean arterial pressure at baseline, individual rats [2, 5]: 86.75 mm of Hg and 107.64 mm of Hg and 160.50 mm of Hg and 141.36 mm of Hg and 187.84 mm of Hg
Mean arterial pressure with an intravenous dose of Phenylephrine 20 μg/kg, individual rats [2, 5]: 149.35 mm of Hg and 120.84 mm of Hg and 202.61 mm of Hg and 194.76 mm of Hg and 203.90 mm of Hg
Mean Arterial Pressure, individual rats ([2]; gavage Aspirin 10 mg/kg 7 days, Baseline): 86.75 mmHg and 107.64 mmHg and 160.50 mmHg and 141.36 mmHg and 187.84 mmHg
Mean Arterial Pressure, Average ([2]; gavage Aspirin 10 mg/kg 7 days, Baseline, n=5): 136.8 mmHg
Mean Arterial Pressure, individual rats ([2]; gavage Aspirin 10 mg/kg 7 days, PHE 3 μg/kg iv): 97.24 mmHg and 122.18 mmHg and 168.06 mmHg and 150.54 mmHg and 192.06 mmHg
Mean Arterial Pressure, Average ([2]; gavage Aspirin 10 mg/kg 7 days, PHE 3 μg/kg iv, n=5): 146.0* mmHg
Mean Arterial Pressure, individual rats ([2]; gavage Aspirin 10 mg/kg 7 days, PHE 10 μg/kg iv): 137.63 mmHg and 122.18 mmHg and 203.75 mmHg and 169.61 mmHg and 201.69 mmHg
Mean Arterial Pressure, individual rats ([2]; gavage Aspirin 10 mg/kg 7 days, PHE 10 μg/kg iv after Carvedilol): 93.22 mmHg and 52.61 mmHg and 185.63 mmHg and 171.45 mmHg and 187.96 mmHg
Mean Arterial Pressure, Average ([2]; gavage Aspirin 10 mg/kg 7 days, PHE 10 μg/kg iv after Carvedilol, n=5): 138.2 § mmHg
Mean Arterial Pressure, Average ([2]; gavage Aspirin 10 mg/kg 7 days, PHE 10 μg/kg iv, n=5): 167.0* mmHg
Mean Arterial Pressure, individual rats ([2]; gavage Aspirin 10 mg/kg 7 days, PHE 20 μg/kg iv): 149.35 mmHg and 120.84 mmHg and 202.61 mmHg and 194.76 mmHg and 203.90 mmHg
Mean Arterial Pressure, Average ([2]; gavage Aspirin 10 mg/kg 7 days, PHE 20 μg/kg iv, n=5): 174.3* mmHg
Mean Arterial Pressure, individual rats ([2]; gavage Aspirin 10 mg/kg 7 days, second Baseline after PHE 20 μg/kg): 98.38 mmHg and 64.32 mmHg and 164.88 mmHg and 159.32 mmHg and 177.61 mmHg
Mean Arterial Pressure, Average ([2]; gavage Aspirin 10 mg/kg 7 days, second Baseline after PHE 20 μg/kg, n=5): 132.9** mmHg

COc1ccccc1OCCNCC(O)COc1cccc2[nH]c3ccccc3c12 (stereo not shown) [Carvedilol, carvedilol]
effect on blood pressure ([2]; 0.1 mg/kg iv, DGLA+aspirin-fed animals): significant decrease in blood pressure
effect on mean systemic arterial pressure when added after phenylephrine ([2]; 0.1 mg/kg iv, aspirin-fed rats): significant decrease
Mean Arterial Pressure, individual rats ([2]; gavage Aspirin 10 mg/kg 7 days, Carvedilol 0.1 mg/kg iv): 57.12 mmHg and 44.38 mmHg and 145.56 mmHg and 134.82 mmHg and 115.06 mmHg
Mean Arterial Pressure, individual rats ([2]; gavage DGLA 50 mg/kg + Aspirin 10 mg/kg 7 days, Carvedilol 0.1 mg/kg iv): 115.29 mmHg and 97.01 mmHg and 126.33 mmHg and 59.10 mmHg and 58.93 mmHg
Mean Arterial Pressure, Average SAP ([2]; gavage DGLA 50 mg/kg + Aspirin 10 mg/kg 7 days, Carvedilol 0.1 mg/kg iv, n=5): 91.3 † mmHg
Mean Arterial Pressure, individual rats ([2]; gavage DGLA 500 mg/kg + Aspirin 10 mg/kg 7 days, Carvedilol 0.1 mg/kg iv): 62.13 mmHg and 57.56 mmHg and 57.32 mmHg and 52.11 mmHg
Mean Arterial Pressure, Average SAP ([2]; gavage DGLA 500 mg/kg + Aspirin 10 mg/kg 7 days, Carvedilol 0.1 mg/kg iv, n=4): 57.3 † mmHg

CNC[C@H](O)c1cccc(O)c1 [phenylephrine]
hypertensor effect on mean systemic arterial pressure ([2]; 3, 10, 20 μg/kg iv, rats fed with aspirin): increased mean systemic arterial pressure with increasing doses
